From ChEMBL document CHEMBL1159363, “New cytotoxic alkaloids from the wood of Vepris punctata from the Madagascar rainforest” (J Nat Prod, 2003) come the findings set out here.

SMILES strings stand for the structures. Converted amounts (≈) assume the structure as drawn.

Broadly, the IC50 is the midpoint of a concentration-inhibition curve. A high value points to weaker potency in that assay.

The assay has as its system A2780. Nature of the assay: Cytotoxicity against human A2780 cells. The assay is classed as functional, cell-based.

`COc1c2c(c(OC)c3c(OC)c4ccoc4nc13)OCO2`: the IC50 was 3.5 µg/mL (≈ 11.5 µM).

`COc1c2c(cc3nc4occc4c(OC)c13)OCO2` registered an IC50 of 2.8 µg/mL (≈ 10.2 µM). The figure for `COc1c(OC)c(OC)c2c(OC)c3ccoc3nc2c1OC` is 3.4 µg/mL (≈ 10.6 µM); for `COc1c2ccoc2nc2c(OC)c3c(cc12)OCO3` [FLINDERSIAMINE] it is 3.3 µg/mL (≈ 12.1 µM). `COc1cc2nc3occc3c(OC)c2cc1OC` [KOKUSAGININE] came in with an IC50 of 3.5 µg/mL (≈ 13.5 µM). In turn, `COc1c2cc3c(cc2nc2occc12)OCO3` [MACULINE] came in with an IC50 of 4 µg/mL (≈ 16.4 µM). As to `COc1ccc2c(OC)c3ccoc3nc2c1OC` [SKIMMIANINE], the IC50 was determined as 4.2 µg/mL (≈ 16.2 µM).
